Assay results as given in PubChem BioAssay AID1259407 (Chemical Carcinogenesis Research Information System (CCRIS), 2018).
Calls of active or inactive are those of the source. How the calls were made is not given here.

Test system: CCRIS mutagenicity, Ames/micronucleus/aberration tests
Test: CCRIS mutagenicity studies
[1] = Test System: AMES SALMONELLA TYPHIMURIUM, Strain/Indicator: TA97, Metabolic Activation: NONE, Method: PREINCUBATION
[2] = Test System: AMES SALMONELLA TYPHIMURIUM, Strain/Indicator: TA98, Metabolic Activation: NONE, Method: PREINCUBATION
[3] = Test System: AMES SALMONELLA TYPHIMURIUM, Strain/Indicator: TA98, Metabolic Activation: NONE, Method: STANDARD PLATE
[4] = Test System: AMES SALMONELLA TYPHIMURIUM, Strain/Indicator: TA100, Metabolic Activation: NONE, Method: PREINCUBATION
[5] = Test System: AMES SALMONELLA TYPHIMURIUM, Strain/Indicator: TA100, Metabolic Activation: NONE, Method: STANDARD PLATE
[6] = Test System: AMES SALMONELLA TYPHIMURIUM, Strain/Indicator: TA1535, Metabolic Activation: NONE, Method: STANDARD PLATE
[7] = Test System: AMES SALMONELLA TYPHIMURIUM, Strain/Indicator: TA100, Metabolic Activation: RAT, LIVER, S-9, AROCLOR 1254, Method: STANDARD PLATE
[8] = Test System: AMES SALMONELLA TYPHIMURIUM, Strain/Indicator: TA1535, Metabolic Activation: RAT, LIVER, S-9, AROCLOR 1254, Method: STANDARD PLATE

## C[C@]12C/C(=C/O)C(=O)C[C@@H]1CC[C@@H]1[C@@H]2CC[C@@]2(C)[C@H]1CC[C@]2(C)O
Test System: AMES SALMONELLA TYPHIMURIUM, Strain/Indicator: TA97, Metabolic Activation: HAMSTER, LIVER, S-9, AROCLOR 1254 (10 OR 30%), Method: PREINCUBATION
  mutagenic call: inactive; negative
[1]
  mutagenic call: inactive; negative
Test System: AMES SALMONELLA TYPHIMURIUM, Strain/Indicator: TA97, Metabolic Activation: RAT, LIVER, S-9, AROCLOR 1254 (10 OR 30%), Method: PREINCUBATION
  mutagenic call: inactive; negative
Test System: AMES SALMONELLA TYPHIMURIUM, Strain/Indicator: TA98, Metabolic Activation: HAMSTER, LIVER, S-9, AROCLOR 1254 (10 OR 30%), Method: PREINCUBATION
  mutagenic call: inactive; negative
[2]
  mutagenic call: inactive; negative
[3]
  mutagenic call: inactive; negative
Test System: AMES SALMONELLA TYPHIMURIUM, Strain/Indicator: TA98, Metabolic Activation: RAT LIVER S-9, AROCLOR 1254, 10%, Method: STANDARD PLATE
  mutagenic call: inactive; negative
Test System: AMES SALMONELLA TYPHIMURIUM, Strain/Indicator: TA98, Metabolic Activation: RAT, LIVER, S-9, AROCLOR 1254 (10 OR 30%), Method: PREINCUBATION
  mutagenic call: inactive; negative
Test System: AMES SALMONELLA TYPHIMURIUM, Strain/Indicator: TA100, Metabolic Activation: HAMSTER, LIVER, S-9, AROCLOR 1254 (10 OR 30%), Method: PREINCUBATION
  mutagenic call: inactive; negative
[4]
  mutagenic call: inactive; negative
[5]
  mutagenic call: inactive; negative
Test System: AMES SALMONELLA TYPHIMURIUM, Strain/Indicator: TA100, Metabolic Activation: RAT LIVER S-9, AROCLOR 1254, 10%, Method: STANDARD PLATE
  mutagenic call: inactive; negative
Test System: AMES SALMONELLA TYPHIMURIUM, Strain/Indicator: TA100, Metabolic Activation: RAT, LIVER, S-9, AROCLOR 1254 (10 OR 30%), Method: PREINCUBATION
  mutagenic call: inactive; negative
Test System: AMES SALMONELLA TYPHIMURIUM, Strain/Indicator: TA1535, Metabolic Activation: HAMSTER, LIVER, S-9, AROCLOR 1254 (10 OR 30%), Method: PREINCUBATION
  mutagenic call: inactive; negative
Test System: AMES SALMONELLA TYPHIMURIUM, Strain/Indicator: TA1535, Metabolic Activation: NONE, Method: PREINCUBATION
  mutagenic call: inactive; negative
[6]
  mutagenic call: inactive; negative
Test System: AMES SALMONELLA TYPHIMURIUM, Strain/Indicator: TA1535, Metabolic Activation: RAT LIVER S-9, AROCLOR 1254, 10%, Method: STANDARD PLATE
  mutagenic call: inactive; negative
Test System: AMES SALMONELLA TYPHIMURIUM, Strain/Indicator: TA1535, Metabolic Activation: RAT, LIVER, S-9, AROCLOR 1254 (10 OR 30%), Method: PREINCUBATION
  mutagenic call: inactive; negative
Test System: AMES SALMONELLA TYPHIMURIUM, Strain/Indicator: TA1537, Metabolic Activation: NONE, Method: STANDARD PLATE
  mutagenic call: inactive; negative
Test System: AMES SALMONELLA TYPHIMURIUM, Strain/Indicator: TA1537, Metabolic Activation: RAT LIVER S-9, AROCLOR 1254, 10%, Method: STANDARD PLATE
  mutagenic call: inactive; negative
Test System: ESCHERICHIA COLI, Strain/Indicator: WP2 UVRA, Metabolic Activation: NONE, Method: STANDARD PLATE
  mutagenic call: inactive; negative
Test System: ESCHERICHIA COLI, Strain/Indicator: WP2 UVRA, Metabolic Activation: RAT LIVER S-9, AROCLOR 1254, 10%, Method: STANDARD/PLATE
  mutagenic call: inactive; negative
Test System: MOUSE LYMPHOMA, Strain/Indicator: L5178Y (TK+/TK-), Metabolic Activation: NONE, Method: SUSPENSION PLATE
  mutagenic call: inactive; negative
Test System: MOUSE LYMPHOMA, Strain/Indicator: L5178Y (TK+/TK-), Metabolic Activation: RAT LIVER S-9, AROCLOR 1254, 3%, NADP, ISOCITRATE, Method: SUSPENSION/PLATE
  mutagenic call: inactive; negative

## CCOCC1CO1 (stereo not drawn)
[5]
  mutagenic call: active; positive
[7]
  mutagenic call: active; positive
[6]
  mutagenic call: active; positive
[8]
  mutagenic call: active; positive

## N#CCCl
[3]
  mutagenic call: inactive; negative
Test System: AMES SALMONELLA TYPHIMURIUM, Strain/Indicator: TA98, Metabolic Activation: RAT, LIVER, S-9, AROCLOR 1254, Method: STANDARD PLATE
  mutagenic call: inactive; negative
Test System: AMES SALMONELLA TYPHIMURIUM, Strain/Indicator: TA100, Metabolic Activation: NONE, Method: FLUCTUATION TEST
  mutagenic call: inactive; negative
[5]
  mutagenic call: inactive; negative
Test System: AMES SALMONELLA TYPHIMURIUM, Strain/Indicator: TA100, Metabolic Activation: RAT, LIVER, S-9, AROCLOR 1254, Method: FLUCTUATION TEST
  mutagenic call: active; positive
[7]
  mutagenic call: inactive; negative
[6]
  mutagenic call: inactive; negative
[8]
  mutagenic call: inactive; negative

## COC(=O)c1ccc(/C=N/n2nnc3c([nH]c4ccccc43)c2=O)cc1
[1]
  mutagenic call: active; positive
Test System: AMES SALMONELLA TYPHIMURIUM, Strain/Indicator: TA97, Metabolic Activation: RAT, LIVER, S-9, AROCLOR 1254 (10%), Method: PREINCUBATION
  mutagenic call: active; positive
[2]
  mutagenic call: active; positive
Test System: AMES SALMONELLA TYPHIMURIUM, Strain/Indicator: TA98, Metabolic Activation: RAT, LIVER, S-9, AROCLOR 1254 (10%), Method: PREINCUBATION
  mutagenic call: active; positive
[4]
  mutagenic call: inactive; negative
Test System: AMES SALMONELLA TYPHIMURIUM, Strain/Indicator: TA100, Metabolic Activation: RAT, LIVER, S-9, AROCLOR 1254 (10%), Method: PREINCUBATION
  mutagenic call: active; positive
Test System: AMES SALMONELLA TYPHIMURIUM, Strain/Indicator: TA102, Metabolic Activation: NONE, Method: PREINCUBATION
  mutagenic call: inactive; negative
Test System: AMES SALMONELLA TYPHIMURIUM, Strain/Indicator: TA102, Metabolic Activation: RAT, LIVER, S-9, AROCLOR 1254 (10%), Method: PREINCUBATION
  mutagenic call: active; positive

## COc1cc2oc(-c3ccc(O)cc3)c(O)c(=O)c2cc1OC
[2]
  mutagenic call: inactive; negative
Test System: AMES SALMONELLA TYPHIMURIUM, Strain/Indicator: TA98, Metabolic Activation: RAT LIVER S-9, SODIUM BARBITAL AND BETA-NAPHTHAFLAVONE, Method: PREINCUBATION
  mutagenic call: inactive; negative
[4]
  mutagenic call: inactive; negative
Test System: AMES SALMONELLA TYPHIMURIUM, Strain/Indicator: TA100, Metabolic Activation: RAT LIVER S-9, SODIUM BARBITAL AND BETA-NAPHTHAFLAVONE, Method: PREINCUBATION
  mutagenic call: inactive; negative
